Where two headings read alike, the source gives them in different places.
Tests used:
[1] = test system: HEPG-2
Description: The test consisted of evaluating the cytotoxic effect of walnut husk and leaf extract, in different concentrations, on viability in cell culture. For this, the HEPG-2 line was used as a cell matrix, which are immortalized human liver cells.
To evaluate the effect on viability in cell culture, an assay was performed with the Invitrogen MTT kit (Ref.V13154; lot:1924421), whose technique consists of a colorimetric analysis that measures the metabolic activity of the cell. This assay was carried out following the protocol provided by the kit supplier, using a 96-well plate with HEPG-2 cell culture with an approximate confluence of 80%. Taking the cytotoxic compound SDS 0.2% as a positive control and the cell culture with its medium as a negative control.

[2] = test system: Caco-2 cells
[3] = test system: Salmonella; details: mayonnaise
Description: (§1) Mayonnaise was made on a laboratory scale using mayonnaise powder, the flowchart is shown in Diagram 3. [formula]
(§2) Where the stability of mayonnaise without any antioxidant (control) was studied, the stability when using a frequently used synthetic antioxidant such as EDTA, and a microparticle of the invention for foods with more than 70% fat, which corresponds to Maltodextrin with capsule as a channeling agent (EH:MD-Capsule). The dose used was in accordance with the food safety regulations (FSR) and corresponded to 5.5 g of microparticles per 2 kilos of mayonnaise. […] Table 9. Mayonnaise formulation for stability tests.

[4] = test system: mesophilic aerobic microorganisms (AMR); details: mayonnaise
Description: as §1, §2

[5] = test system: S. aureus; details: mayonnaise

Compound | Cell viability [1] | Cell viability [2] | Salmonella Title ([3]; 4°C, 6 days refrigeration) | Salmonella Title ([3]; 4°C, 13 days refrigeration) | Salmonella Title ([3]; 4°C, 20 days refrigeration) | Salmonella Title ([3]; 4°C, 27 days refrigeration) | Salmonella Title ([3]; Time 0) | day of conservation from which AMR were detected ([4]; 4°C) | AMR Title ([4]; 4°C, 6 days refrigeration) | AMR Title ([4]; 4°C, 13 days refrigeration) | AMR Title ([4]; 4°C, 20 days refrigeration) | AMR Title ([4]; 4°C, 27 days refrigeration) | AMR Title ([4]; Time 0) | day from which S. aureus develops ([5]; 4°C) | S. aureus Title ([5]; 4°C, 6 days refrigeration) | S. aureus Title ([5]; 4°C, 13 days refrigeration) | S. aureus Title ([5]; 4°C, 27 days refrigeration) | S. aureus Title ([5]; Time 0)
CCCCCCCCCCCCOS(=O)(=O)[O-].[Na+] [SDS] | 22.9% | 3.94± 0.2% |  |  |  |  |  |  |  |  |  |  |  |  |  |  |  | 
O=C(O)CN(CCN(CC(=O)O)CC(=O)O)CC(=O)O [synthetic, EDTA] |  |  | 0 CFU/gr | 0 CFU/gr | 0 CFU/gr | 0 CFU/gr | 0 CFU/gr | 20 days | 0 CFU/gr | 0 CFU/gr | 2x10^4 CFU/gr | 1.25 x 10^5 CFU/gr | 0 CFU/gr | 20 days | 0 CFU/gr | 0 CFU/gr | 1.15 x 10^4 CFU/gr | 0 CFU/gr

— patent publication EP4706404A1, “MICROENCAPSULATED NATURAL PRESERVATIVE AND ANTIOXIDANT FOR FATTY FOODS, WITH WALNUT HUSK AND WALNUT TREE LEAF EXTRACT” (Universidad Andres Bello, priority 2023, dated 2024)
